According to patent US4714705A, “4-nitrogen substituted isoquinolinol compounds having cardiotonic, phosphodiesterase fraction III inhibiting properties and/or renal vasodilating properties” (Ortho Pharmaceutical Corporation, priority 1986, dated 1987):
Like-named read-outs stand apart in the source and are kept apart here.

Tested on: adult mongrel dogs
Assay: Renal vasodilating activity in anesthetized dogs
Type: in vivo, dog (adult mongrel)
Conditions: Canis lupus familiaris; for change in vivo at 0.2 mg/kg: 0.2 mg/kg intravenous
Method: Goldberg et al, J. Pharmacol. Exp. Ther., 163, 188 (1968), performed an investigation of the structural requirements for dopamine-like renal vasodilation of phenethylamines and apmorphine. The following procedure is a variation of the assay described in that report.
Adult mongrel dogs were anesthetized and surgically prepared for electromagnetic measurement of renal artery blood flow. A carotid artery was cannulated for measuring arterial blood pressure, and drugs were administered intravenously or intraarterially (via the renal artery). Heart rate was monitored with a cardiotachometer. Renal vascular resistance was calculated as the ratio of mean arterial blood pressure/renal artery blood flow. Dopamine was infused intravenously at […] for ten minutes (at an infusion rate of about 1 ml/min) to determine responsiveness of each dog to renal dopamine receptor stimulation. Cumulative dose-response data were obtained by infusing a compound of this invention at progressively increasing (usually three-fold) infusion rates, esch dose being infused for five minutes. The maximum percent increase from pre-drug control in renal artery blood flow (or a decrease in renal vascular resistance) was determined for each infusion dose.
RBF values are percent increase in renal blood flow. RVR values are percent increase in renal vascular resistance. MABP and HR are increases in mean arterial blood pressure and heart rate, respectively, relative to controls.

[1] = iv, read-out: HR, percent change in heart rate
[2] = 6.2 mg/kg intravenous, relative to controls, read-out: MABP, mean arterial blood pressure
[3] = 6.2 mg/kg intravenous, relative to controls, read-out: RBF, renal blood flow
[4] = 6.2 mg/kg intravenous, relative to controls, read-out: RVR, renal vascular resistance
[5] = 6.2 mg/kg intravenous, relative to controls, read-out: HR, percent change in heart rate
[6] = 1.2 mg/kg intravenous, relative to controls, read-out: HR, percent change in heart rate
[7] = 1.2 mg/kg intravenous, relative to controls, read-out: MABP, mean arterial blood pressure
[8] = 1.2 mg/kg intravenous, relative to controls, read-out: RBF, renal blood flow
[9] = 1.2 mg/kg intravenous, relative to controls, read-out: RVR, renal vascular resistance

SMILES	change in vivo at 6.2 mg/kg [2] [%]	change in vivo at 6.2 mg/kg [3] [%]	change in vivo at 6.2 mg/kg [4] [%]	change in vivo at 6.2 mg/kg [5] [%]	change in vivo at 1.2 mg/kg [6] [%]	change in vivo at 1.2 mg/kg [7] [%]	change in vivo at 1.2 mg/kg [8] [%]	change in vivo at 1.2 mg/kg [9] [%]	also measured
COc1cc2c(C)nc(O)c(NC(=O)Nc3ccc(C(F)(F)F)cc3)c2cc1OC [BAD]	4	49	-29						change in vivo at 6.2 mg/kg [1]: 10%
COc1cccc(NC(=O)Nc2c(O)nc(C)c3cc(OC)c(OC)cc23)c1 [BAE]		58	-36	-2					
COc1cc2c(C)nc(O)c(NC(=O)Nc3cccc(Cl)c3)c2cc1OC [BAF]		30	-20	4					
COc1cc2c(C)nc(O)c(NC(=O)Nc3cccc(C(F)(F)F)c3)c2cc1OC [BAG]	2	23	-16	-10					
CCOc1cc2c(C)nc(O)c(NC(=O)NCc3ccccc3)c2cc1OC [BAJ]	-11	54	-32	-6					
C=CCNC(=O)Nc1c(O)nc(C)c2cc(OC)c(OC)cc12 [BAO, 4-(N'-allylureido)-3-hydroxy-6,7-dimethoxy-1-methylisoquinoline]					-3	8	96	-44	
COc1ccc(NC(=O)Nc2c(O)nc(C)c3cc(OC)c(OC)cc23)c(OC)c1 [BAP]					-1	-14	17	-26	
COc1cc2c(C)nc(O)c(NC(=O)Nc3ccc([N+](=O)[O-])cc3)c2cc1OC [BAR]							9	-8	
COc1cc2c(C)nc(O)c(NC(=O)NC(C)(C)C)c2cc1OC [BAU]	-3	12	-13	4					
CCOc1cc2c(NC(=O)Nc3ccc(OC)cc3)c(O)nc(C)c2cc1OC [BAV]	-5	35	-29	9					
COc1cc2c(C)nc(O)c(NC(=O)NCCCl)c2cc1OC [BAY]									change in vivo at 6.2 mg/kg [1]: 27%; change in vivo at 6.2 mg/kg (iv, read-out: MABP, mean arterial blood pressure): 19%; change in vivo at 6.2 mg/kg (iv, read-out: RBF, renal blood flow): 85%; change in vivo at 6.2 mg/kg (iv, read-out: RVR, renal vascular resistance): -35%
CCOc1cc2c(NC(=O)Nc3ccc(SC)cc3)c(O)nc(C)c2cc1OC [BBA]	23	53	-17	2					
COc1cc2c(C)nc(O)c(NC(=O)NC3CCCCC3)c2cc1OC [BBE]					2	3	24	-16	
CCCCCCCCNC(=O)Nc1c(O)nc(C)c2cc(OC)c(OC)cc12 [BBF]					-14		19	-24	
COc1ccc(NC(=O)Nc2c(O)ncc3cc(OC)c(OC)cc23)cc1 [BBG]						1	15	-11	change in vivo at 1.2 mg/kg [1]: 12%
COc1ccc(NC(=O)Nc2c(O)nc(C)c3cc(OC)c(OC)cc23)cc1OC [BBL]					-1	5	13	-8	

SMILES	change in vivo at 6.2 mg/kg [2] [%]	change in vivo at 6.2 mg/kg [3] [%]	change in vivo at 6.2 mg/kg [4] [%]	change in vivo at 6.2 mg/kg [5] [%]	change in vivo at 1.2 mg/kg [6] [%]	change in vivo at 1.2 mg/kg [7] [%]	change in vivo at 1.2 mg/kg [8] [%]	change in vivo at 1.2 mg/kg [9] [%]	also measured
COc1cc2c(C)nc(O)c(NC(=O)NCCc3ccccc3)c2cc1OC [BBM]									change in vivo at 0.2 mg/kg (relative to controls, read-out: HR, percent change in heart rate): -1%; change in vivo at 0.2 mg/kg (relative to controls, read-out: RBF, renal blood flow): 12%; change in vivo at 0.2 mg/kg (relative to controls, read-out: RVR, renal vascular resistance): -10%
COC(=O)Nc1c(O)nc(C)c2cc(OC)c(OC)cc12 [BBR]	-7	30	-29	27					
COc1ccc(NC(=O)Nc2c(O)nc(C)c3cc(OC)ccc23)cc1 [BBS]					5	2	17	-4	
COc1cc2c(C)nc(O)c(NC(=O)Nc3ccc(C#N)cc3)c2cc1OC [BBX]					-11	-11	12	-20	
CNC(=O)Nc1c(O)nc(C)c2cc(OC)c(OC)cc12 [BBY]					-4	6	21	-12	
COc1cc2c(C)nc(O)c(NC(=O)Nc3ccc(N)cc3)c2cc1OC [BBZ]					8	5	22	-12	
CCNC(=O)Nc1c(O)nc(C)c2cc(OC)c(OC)cc12 [BCD]							28	-22	
COc1ccc(NC(=O)Nc2c(O)nc(C)c3cc(OC)c(OC)cc23)cc1 [BP, 4-(N'-para-methoxyphenylureido)-3-hydroxy-6,7-dimethoxy-1-methylisoquinoline]	12	68	-32	2					
CCOc1cc2c(C)nc(O)c(NC(N)=O)c2cc1OC [BS]		33	-24	4					
CCOc1cc2c(C)nc(O)c(NC(=O)Nc3ccc(C(F)(F)F)cc3)c2cc1OC [BV]	-6	25	-24	26					
CCCCOC(=O)Nc1c(O)nc(C)c2cc(OC)c(OC)cc12 [Compound BBP, 4-[N-(n-Butoxycarbonyl)amino]-3-hydroxy-6,7-dimethoxy-1-methylisoquinoline]	1	77	-42						
COc1cc2c(C)nc(O)c(NC(=O)Nc3ccc(C(=O)O)cc3)c2cc1OC [Compound BCA, 4-[N-(4-Carboxyphenyl)ureido]-3-hydroxy-6,7-dimethoxy-1-methylisoquinoline.5/2 Hydrate]					-12	-1	40	-28	
COc1cc2c(C)nc(O)c(NC(=O)Nc3ccc([S+](C)[O-])cc3)c2cc1OC (stereo not drawn) [Compound BCB, Hydrate]					-1	5	12	-6	
COc1cc2c(C)nc(O)c(NC(N)=O)c2cc1OC [Compound BM, 6,7-Dimethoxy-3-hydroxy-1-methyl-4-ureidoisoquinoline]	18	59	-23	-10					
CCCCNC(=O)Nc1c(O)nc(C)c2cc(OC)c(OC)cc12 [Compound BR, 4-(N'-n-Butylureido)-3-hydroxy-6,7-dimethoxy-1-methylisoquinoline Hemihydrate]	-1	128	-56	-9					
